Assay results taken from patent US7087627B1, “Combinations for the treatment of diseases involving angiogenesis” (Angiogene Pharmaceuticals Ltd., priority 1999, dated 2006).

Legend:
CaNT tumours = experiment: Tumour functional vascular volume measured by fluorescent dye Hoechst 33342; format: in vivo; conditions: CaNT tumour-bearing mice; CA4P 25 mg/kg alone, intra peritoneal; 24 hours after treatment
Procedure: Activity Against Tumour Vasculature Measured by Fluorescent Dye.
Tumour functional vascular volume in CaNT tumour-bearing mice was measured using the fluorescent dye Hoechst 33342 according to the method of Smith et al (Brit J Cancer 57, 247–253, 1988). The fluorescent dye was dissolved in saline at 6.25 mg/ml and injected intravenously at 10 mg/kg 24 hours after intra peritoneal drug treatment. One minute later, animals were killed and tumours excised and frozen; 10 μm sections were cut at 3 different levels and observed under UV illumination using an Olympus microscope equipped with epifluorescence. Blood vessels were identified by their fluorescent outlines and vascular volume was quantified using a point scoring system based on that described by Chalkley, (J Natl Cancer Inst, 4, 47–53, 1943). All estimates were based on counting a minimum of 100 fields from sections cut at the 3 different levels.

SaS tumours = experiment: Induction of necrosis in SaS tumours; format: in vivo; conditions: SaS tumour-bearing mice, tumours excised after 24 h, mean score 1-10 by area of necrosis
Procedure: Mice bearing either CaNT or SaS tumours were treated with the test compound and tumours excised after 24 h, fixed in formalin, embedded in paraffin, sectioned and stained with haematoxylin and eosin. Sections were scored based on area of necrosis as follows:
In this assay the effect of a given dose of either a vascular damaging agent or a nitric oxide synthase inhibitor administered alone can be compared with the effect of a combination of the two agents.

Row | SMILES | Vascular Volume % ± SEM (n) (CaNT tumours) | Necrosis score ± SEM (n) (SaS tumours; CA4P 500 mg/kg alone) | Necrosis score ± SEM (n) (SaS tumours; AMP 10 mg/kg alone)
1 | COc1ccc(/C=C\c2cc(OC)c(OC)c(OC)c2)cc1OP(=O)(O)O [CA4P, Combretastatin A4 phosphate] | 1.03 ± 0.14 (4) % | 1.7 ± 0.7 | 
2 | Cc1ccnc(N)c1 [AMP, 2-amino-4-methylpyridine] |  |  | 1.0
